Values of other authors as cited in US20080311196A1, “All Day Rhinitic Condition Treatment Regimen” (priority 2006, published 2008).

Experiments:
[1] = molecular target: histamine H1-receptor (Homo sapiens, UniProt P35367); settings: E-isomer versus Z-isomer; fit in the histamine H1-receptor binding site
Chain of histamine H1-receptor (P35367 whole entry, species assumed): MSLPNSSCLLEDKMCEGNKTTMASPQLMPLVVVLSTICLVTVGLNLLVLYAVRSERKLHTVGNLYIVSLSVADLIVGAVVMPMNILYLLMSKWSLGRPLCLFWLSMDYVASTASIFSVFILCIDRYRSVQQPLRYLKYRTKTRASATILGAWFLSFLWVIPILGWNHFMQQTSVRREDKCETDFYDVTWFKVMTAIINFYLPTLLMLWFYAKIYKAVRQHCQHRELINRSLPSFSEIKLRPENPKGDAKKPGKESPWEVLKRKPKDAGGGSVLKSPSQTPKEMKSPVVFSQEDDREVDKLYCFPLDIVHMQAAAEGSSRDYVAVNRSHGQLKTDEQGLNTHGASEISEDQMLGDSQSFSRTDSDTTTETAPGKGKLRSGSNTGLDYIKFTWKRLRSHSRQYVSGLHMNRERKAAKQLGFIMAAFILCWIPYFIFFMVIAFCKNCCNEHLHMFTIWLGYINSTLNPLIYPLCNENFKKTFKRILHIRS

| Molecule | time of maximal pharmacological sedation after dosing (after dosing) [hour] | persistence of sedation following dosing (following dosing, usually not longer than) [h] | duration of inhibition of the symptoms of rhinitis (single dose) | potency relative to Z-triprolidine [1] |
| --- | --- | --- | --- | --- |
| CN(C)CCC(c1ccc(Cl)cc1)c1ccccn1 (stereo not shown) [chlorpheniramine] | 3 to 4 | 6 to 8 | more than 24 hours |  |
| E-triprolidine |  |  |  | E-triprolidine, for example, is 1000-fold |
